Test results published in PubChem BioAssay AID328 (DTP/NCI, 2004).
Values joined by “and” are separate entries in the source; they are usually repeats but may differ in a detail not shown here. Identical values can stand only once. Inconclusive results and toxic doses are left out.

Test system: BDF1 mice, P388 leukemia ip, median survival T/C
Assay: NCI In Vivo Anticancer Drug Screen. Data for tumor model P388 Leukemia (intraperitoneal) in B6D2F1 (BDF1) mice
Conditions: endpoint: median survival time, higher = longer survival
How it was run: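 Reported as T/C, where T is the survival measurement in dosed animals and C the same measurement in vehicle controls.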

[1] = dose: 25.0 mg/kg/injection, schedule: Q01DX009 (ip), vehicle: saline
[2] = dose: 50.0 mg/kg/injection, schedule: Q01DX009 (ip), vehicle: saline
[3] = dose: 100.0 mg/kg/injection, schedule: Q04DX003 (ip), vehicle: saline with Tween-80
[4] = dose: 400.0 mg/kg/injection, schedule: Q04DX003 (ip), vehicle: saline with Tween-80
[5] = dose: 50.0 mg/kg/injection, schedule: Q01DX009 (ip), vehicle: saline with Tween-80
[6] = dose: 100.0 mg/kg/injection, schedule: Q01DX009 (ip), vehicle: saline with Tween-80
[7] = dose: 25.0 mg/kg/injection, schedule: Q04DX003 (ip), vehicle: Klucel (hydroxypropylcellulose) (HPC)
[8] = dose: 200.0 mg/kg/injection, schedule: Q01DX009 (ip), vehicle: saline with Tween-80
[9] = dose: 25.0 mg/kg/injection, schedule: Q01DX009 (ip), vehicle: Klucel (hydroxypropylcellulose) (HPC)
[10] = dose: 100.0 mg/kg/injection, schedule: Q04DX003 (ip), vehicle: Klucel (hydroxypropylcellulose) (HPC)
[11] = dose: 200.0 mg/kg/injection, schedule: Q04DX003 (ip), vehicle: Klucel (hydroxypropylcellulose) (HPC)
[12] = dose: 25.0 mg/kg/injection, schedule: Q01DX009 (ip), vehicle: saline with Tween-80

SMILES: Nc1nc2c(ncn2C2OC(CO)C(O)C2N)c(=O)[nH]1 (stereo not drawn)
- T/C (dose: 3.12 mg/kg/injection, schedule: Q01DX009 (ip), vehicle: saline): 111 % of control
- T/C (dose: 6.25 mg/kg/injection, schedule: Q01DX009 (ip), vehicle: saline): 111 % of control and 124 % of control
- T/C (dose: 12.5 mg/kg/injection, schedule: Q01DX009 (ip), vehicle: saline): 102 % of control and 117 % of control
- T/C [1]: 93 % of control and 111 % of control
- T/C [2]: 108 % of control
- T/C [3]: 109 % of control
- T/C [4]: 100 % of control

SMILES: NCCCCNC(=O)c1csc(-c2csc(CCNC(=O)c3ccccc3)n2)n1
- T/C (dose: 8.0 mg/kg/injection, schedule: Q01DX009 (ip), vehicle: saline): 100 % of control
- T/C (dose: 16.0 mg/kg/injection, schedule: Q01DX009 (ip), vehicle: saline): 100 % of control
- T/C (dose: 32.0 mg/kg/injection, schedule: Q01DX009 (ip), vehicle: saline): 100 % of control
- T/C (dose: 64.0 mg/kg/injection, schedule: Q01DX009 (ip), vehicle: saline): 110 % of control

SMILES: O=c1cc(N=Nc2ccc(O)cc2)[nH]c(=O)[nH]1
- T/C (dose: 25.0 mg/kg/injection, schedule: Q01DX009 (ip), vehicle: water): 100 % of control
- T/C (dose: 50.0 mg/kg/injection, schedule: Q01DX009 (ip), vehicle: water): 106 % of control
- T/C (dose: 50.0 mg/kg/injection, schedule: Q04DX003 (ip), vehicle: water): 104 % of control and 107 % of control
- T/C (dose: 100.0 mg/kg/injection, schedule: Q01DX009 (ip), vehicle: water): 106 % of control
- T/C (dose: 100.0 mg/kg/injection, schedule: Q04DX003 (ip), vehicle: water): 93 % of control and 98 % of control
- T/C (dose: 200.0 mg/kg/injection, schedule: Q01DX009 (ip), vehicle: water): 114 % of control
- T/C (dose: 200.0 mg/kg/injection, schedule: Q04DX003 (ip), vehicle: water): 98 % of control and 102 % of control and 117 % of control
- T/C (dose: 400.0 mg/kg/injection, schedule: Q01DX009 (ip), vehicle: water): 100 % of control
- T/C (dose: 400.0 mg/kg/injection, schedule: Q04DX003 (ip), vehicle: water): 109 % of control and 111 % of control and 117 % of control

SMILES: O=Nc1c(N=O)c(N=O)c(N=O)c(N=O)c1N=O
- T/C (dose: 1.25 mg/kg/injection, schedule: Q01DX010 (ip), vehicle: saline): 90 % of control
- T/C (dose: 2.5 mg/kg/injection, schedule: Q01DX010 (ip), vehicle: saline): 100 % of control
- T/C (dose: 5.0 mg/kg/injection, schedule: Q01DX010 (ip), vehicle: saline): 100 % of control
- T/C (dose: 10.0 mg/kg/injection, schedule: Q01DX010 (ip), vehicle: saline): 95 % of control
- T/C (dose: 80.0 mg/kg/injection, schedule: Q01DX010 (ip), vehicle: saline): 104 % of control

SMILES: COC(=O)C1C(O)CCC2CN3CCc4c([nH]c5ccccc45)C3CC21 (stereo not drawn)
- T/C [1]: 88 % of control
- T/C [5]: 105 % of control
- T/C [2]: 88 % of control
- T/C [6]: 119 % of control
- T/C (dose: 100.0 mg/kg/injection, schedule: Q01DX009 (ip), vehicle: saline): 110 % of control
- T/C (dose: 200.0 mg/kg/injection, schedule: Q01DX009 (ip), vehicle: saline): 118 % of control

SMILES: NC(=S)N/N=C/c1ccc(O)cn1
- T/C (dose: 18.8 mg/kg/injection, schedule: Q01DX009 (ip), vehicle: saline with Tween-80): 189 % of control
- T/C (dose: 25.0 mg/kg/injection, schedule: Q01DX001 (ip), vehicle: Klucel (hydroxypropylcellulose) (HPC)): 100 % of control and 109 % of control
- T/C (dose: 25.0 mg/kg/injection, schedule: Q01DX010 (ip), vehicle: saline): 172 % of control
- T/C (dose: 25.0 mg/kg/injection, schedule: Q04DX002 (ip), vehicle: Klucel (hydroxypropylcellulose) (HPC)): 103 % of control
- T/C [7]: 122 % of control
- T/C (dose: 37.5 mg/kg/injection, schedule: Q01DX009 (ip), vehicle: saline with Tween-80): 219 % of control
- T/C (dose: 50.0 mg/kg/injection, schedule: Q01DX010 (ip), vehicle: saline): 200 % of control
- T/C (dose: 75.0 mg/kg/injection, schedule: Q01DX009 (ip), vehicle: saline with Tween-80): 178 % of control
- T/C (dose: 100.0 mg/kg/injection, schedule: Q01DX010 (ip), vehicle: saline): 227 % of control
- T/C (dose: 200.0 mg/kg/injection, schedule: Q01DX010 (ip), vehicle: saline): 100 % of control

SMILES: NC(=O)c1nc(-c2ccccc2)c(-c2ccccc2)[nH]c1=O
- T/C [5]: 109 % of control
- T/C [6]: 117 % of control
- T/C [3]: 106 % of control
- T/C [8]: 99 % of control
- T/C (dose: 200.0 mg/kg/injection, schedule: Q04DX003 (ip), vehicle: saline with Tween-80): 102 % of control
- T/C [4]: 116 % of control

SMILES: CCC[N+](CCC)(CCC)CCC.N#CN=C([SH2+])[SH2+].N#CN=C([SH2+])[SH2+].[Pt+2]
- T/C (dose: 50.0 mg/kg/injection, schedule: Q04DX003 (ip), vehicle: saline): 100 % of control

SMILES: Nc1nc(=S)[nH]c(C(=O)O)c1Cc1ccccc1
- T/C [9]: 109 % of control
- T/C (dose: 50.0 mg/kg/injection, schedule: Q01DX009 (ip), vehicle: Klucel (hydroxypropylcellulose) (HPC)): 86 % of control and 115 % of control
- T/C (dose: 100.0 mg/kg/injection, schedule: Q01DX009 (ip), vehicle: Klucel (hydroxypropylcellulose) (HPC)): 115 % of control
- T/C (dose: 200.0 mg/kg/injection, schedule: Q01DX009 (ip), vehicle: Klucel (hydroxypropylcellulose) (HPC)): 120 % of control

SMILES: Cn1c2nc3ccccc3c-2nc2ccccc21
- T/C (dose: 12.5 mg/kg/injection, schedule: Q04DX003 (ip), vehicle: Klucel (hydroxypropylcellulose) (HPC)): 94 % of control
- T/C [7]: 98 % of control
- T/C (dose: 50.0 mg/kg/injection, schedule: Q04DX003 (ip), vehicle: Klucel (hydroxypropylcellulose) (HPC)): 103 % of control
- T/C [10]: 101 % of control
- T/C [11]: 116 % of control

SMILES: CCCCNC1=C(N2CC2)C(=O)C(NCCCC)=C(N2CC2)C1=O
- T/C (dose: 1.25 mg/kg/injection, schedule: Q01DX009 (ip), vehicle: saline): 107 % of control
- T/C (dose: 5.0 mg/kg/injection, schedule: Q01DX009 (ip), vehicle: saline): 87 % of control

SMILES: CCN(c1ccc2c(c1)C(=O)c1ccccc1-2)S(=O)(=O)c1ccc(C)cc1
- T/C [10]: 100 % of control
- T/C [11]: 104 % of control
- T/C (dose: 400.0 mg/kg/injection, schedule: Q04DX003 (ip), vehicle: Klucel (hydroxypropylcellulose) (HPC)): 95 % of control

SMILES: S=c1[nH]ncn1-c1ccccc1
- T/C (dose: 6.25 mg/kg/injection, schedule: Q01DX009 (ip), vehicle: saline with Tween-80): 99 % of control
- T/C (dose: 12.5 mg/kg/injection, schedule: Q01DX009 (ip), vehicle: saline with Tween-80): 99 % of control
- T/C [12]: 99 % of control
- T/C [5]: 96 % of control

SMILES: COC(=O)C(N)CSCSC (stereo not drawn)
- T/C (dose: 100.0 mg/kg/injection, schedule: Q04DX003 (ip), vehicle: saline): 90 % of control
- T/C (dose: 200.0 mg/kg/injection, schedule: Q04DX003 (ip), vehicle: saline): 100 % of control
- T/C (dose: 400.0 mg/kg/injection, schedule: Q04DX003 (ip), vehicle: saline): 90 % of control

SMILES: [Cl][Rh][Cl].c1cn[nH]c1.c1cn[nH]c1.c1cn[nH]c1.c1cn[nH]c1
- T/C (dose: 12.5 mg/kg/injection, schedule: Q01DX009 (ip), vehicle: Klucel (hydroxypropylcellulose) (HPC)): 114 % of control
- T/C [9]: 94 % of control

SMILES: CC(=O)C1=CN(Cc2ccccc2)C(O)CC1C(N)=O (stereo not drawn)
- T/C [5]: 101 % of control
- T/C [6]: 109 % of control
- T/C [8]: 115 % of control

SMILES: CN(C(=O)/C=C/C(=O)O)c1ccccc1
- T/C [12]: 109 % of control
- T/C [5]: 109 % of control
- T/C [6]: 109 % of control
- T/C [8]: 113 % of control
- T/C (dose: 400.0 mg/kg/injection, schedule: Q01DX009 (ip), vehicle: saline with Tween-80): 100 % of control

SMILES: CC(C)NC(=O)c1ccccc1Sc1ccccc1
- T/C [5]: 100 % of control
- T/C [6]: 106 % of control
- T/C [8]: 108 % of control

SMILES: O=NN(CCCl)C(=O)Nc1ccccc1
- T/C (dose: 8.0 mg/kg/injection, schedule: Q04DX003 (ip), vehicle: saline with Tween-80): 233 % of control
- T/C (dose: 8.25 mg/kg/injection, schedule: Q04DX003 (ip), vehicle: saline with Tween-80): 231 % of control
- T/C (dose: 12.0 mg/kg/injection, schedule: Q04DX003 (ip), vehicle: saline with Tween-80): 311 % of control
- T/C (dose: 12.5 mg/kg/injection, schedule: Q04DX003 (ip), vehicle: saline with Tween-80): 272 % of control
- T/C (dose: 18.0 mg/kg/injection, schedule: Q04DX003 (ip), vehicle: saline with Tween-80): 261 % of control
- T/C (dose: 18.75 mg/kg/injection, schedule: Q04DX003 (ip), vehicle: saline with Tween-80): 104 % of control
